From publication PMC6270026, “Antibacterial and Herbicidal Activity of Ring-Substituted 2-Hydroxynaphthalene-1-carboxanilides” (Molecules, 2013)
In brackets after ≈: the same amount, converted by molar mass.

System: Mycobacterium avium subsp. paratuberculosis (CIT03)
Assay: In vitro antimycobacterial evaluation (alamarBlue MIC)
Assay type: cell-based
Conditions: 264 h, M. avium paratuberculosis CIT03, 11 days, 37 °C
Procedure: A well characterised clinical isolate of Mycobacterium avium subsp. paratuberculosis (CIT03) was grown in Middlebrook broth (MB), supplemented with Oleic-Albumin-Dextrose-Catalase supplement (OADC, Becton, Dickinson & Comp., Franklin Lakes, NJ, USA) and mycobactin J (2 µg/mL). Identification of this isolate was performed using biochemical and molecular protocols. At log phase growth, a culture sample (10 mL) was centrifuged at 15,000 rpm/20 min using a bench top centrifuge (Model CR 4-12, Jouan Inc., Winchester, VA, USA). Following removal of the supernatant, the pellet was washed in fresh Middlebrook 7H9GC broth and re-suspended in fresh supplemented MB (10 mL). The turbidity was adjusted to match McFarland standard No. 1 (3 × 10^8 cfu) with MB broth. A further 1:20 dilution of the culture was then performed in MB broth. The antimicrobial susceptibility of the mycobacterial species was investigated in a 96-well plate format. In these experiments, sterile deionised water (300 µL) was added to all outer-perimeter wells of the plates to minimize evaporation of the medium in the test wells during incubation. Each evaluated compound (100 µL) was incubated with each of the mycobacterial species (100 µL). Dilutions of each compound were prepared in duplicate. For all synthesized compounds, final concentrations ranged from 1,000 µg/mL to 8 µg/mL. All compounds were prepared in DMSO and subsequent dilutions were made in supplemented MB. The plates were sealed with parafilm and incubated at 37 °C, for 11 days in the case of M. avium paratuberculosis. Following incubation, a 10% addition of alamarBlue (AbD Serotec, Kidlington, UK) was mixed into each well and readings at 570 nm and 600 nm were taken, initially for background subtraction and subsequently after 24 h re-incubation. The background subtraction is necessary for strongly coloured compounds, where the colour may interfere with the interpretation of any colour change. For non-interfering compounds, a blue colour in the well was interpreted as an absence of growth and a pink colour was scored as growth. The minimum inhibitory concentrations (MICs) were initially defined as the lowest concentration which prevented a visual colour change from blue to pink.
The MICs were defined as the lowest concentration of the compound at which no visible bacterial growth was observed. The MIC value is routinely and widely used in bacterial assays and is a standard detection limit according to the Clinical and Laboratory Standards Institute (CLSI). Isoniazid (Sigma-Aldrich) was used as reference antimycobacterial drug.

| Structure (SMILES) | MIC |
| --- | --- |
| O=C(Nc1ccccc1Cl)c1c(O)ccc2ccccc12 [Compound 5a, N-(2-chlorophenyl)-2-hydroxynaphthalene-1-carboxamide] | 202 µM (≈ 60.1 µg/mL) |
| O=C(Nc1ccccc1C(F)(F)F)c1c(O)ccc2ccccc12 [Compound 7a, 2-Hydroxy-N-(2-trifluoromethylphenyl)naphthalene-1-carboxamide] | 377 µM (≈ 125 µg/mL) |
| O=C(Nc1cccc(C(F)(F)F)c1)c1c(O)ccc2ccccc12 [Compound 7b, 2-Hydroxy-N-(3-trifluoromethylphenyl)naphthalene-1-carboxamide] | 731 µM (≈ 242 µg/mL) |
